Earlier results in US4375464A, “Antibiotic AY24,668 and process of preparation” (Ayerst, McKenna & Harrison Inc., priority 1981, dated 1983).

Assays:
Candida albicans [1] = system: Candida albicans
Candida albicans [2] = system: Candida albicans; remark: listed apart in the source
[3] = R. R. Martel et al., Can. J. Physiol., 55, 48 (1977)

CO[C@H]1C[C@@H]2CC[C@@H](C)[C@@](O)(O2)C(=O)C(=O)N2CCCC[C@H]2C(=O)O[C@H]([C@H](C)C[C@@H]2CC[C@@H](O)[C@H](OC)C2)CC(=O)[C@H](C)/C=C(\C)[C@@H](O)[C@@H](OC)C(=O)[C@H](C)C[C@H](C)/C=C/C=C/C=C/1C [rapamycin]
effectiveness against Candida albicans in vitro (Candida albicans [1]): particularly effective
effectiveness against Candida albicans in vivo (Candida albicans [2]): particularly effective
immunosuppressant activity [3]: immunosuppressant activity
